Assay: Shelf stability of the loaded reservoir electrode assembly in storage
Assay type: physicochemical
Settings: incorporated into the reservoir
Source text: In the present example, an aqueous loading solution of 30% lidocaine HCI, 3% epinephrine, 30% glycerin, 0.05% sodium metabisulfite, 0.03% ethylene diamine tetraacetic acid, and 0.06% citric acid are used for the loading solution. The medicaments for delivery are lidocaine HCI and epinephrine, the glycerin serves as a humectant, the other minor components serve to enhance drug stability by chelating metal ions and serving as antioxidants. In order to load this solution onto the reservoir with electrode 112, laminate release liner 132 is removed from side 118 of reservoir 114 and a three-hundred microliter aliquot of this loading solution is applied to exposed surface 118, which is then covered with a final cover that remains in place until the reservoir is applied to a patient to protect the reservoir.

shelf stability of labile medicament: satisfactory shelf stability
SMILES: CNC[C@H](O)c1ccc(O)c(O)c1 [epinephrine, Epinephrine Bitartrate]
